Experimental data reported in patent US5096919A, “Pyrrolylphenyl-substituted hydroxamic acid derivatives” (Ciba-Geigy Corporation, priority 1989, dated 1992).

Key:
5-lipoxygenase [1] = target: T1, 5-lipoxygenase (Cavia porcellus, UniProt A0A286X958); assay: Inhibition of 5-HETE and LTB4 synthesis in A-23187-stimulated guinea pig polymorphonuclear leukocytes; type: cell-based; settings: also printed as 7×10^-7 M, read-out: IC50 for inhibition of the formation of 5-HETE and leukotriene B4 (LTB4)
T1 construct: in A-23187-stimulated guinea pig polymorphonuclear leukocytes; endogenous in cells; host or cells: guinea pig polymorphonuclear leukocytes
T1 sequence (A0A286X958 1-674): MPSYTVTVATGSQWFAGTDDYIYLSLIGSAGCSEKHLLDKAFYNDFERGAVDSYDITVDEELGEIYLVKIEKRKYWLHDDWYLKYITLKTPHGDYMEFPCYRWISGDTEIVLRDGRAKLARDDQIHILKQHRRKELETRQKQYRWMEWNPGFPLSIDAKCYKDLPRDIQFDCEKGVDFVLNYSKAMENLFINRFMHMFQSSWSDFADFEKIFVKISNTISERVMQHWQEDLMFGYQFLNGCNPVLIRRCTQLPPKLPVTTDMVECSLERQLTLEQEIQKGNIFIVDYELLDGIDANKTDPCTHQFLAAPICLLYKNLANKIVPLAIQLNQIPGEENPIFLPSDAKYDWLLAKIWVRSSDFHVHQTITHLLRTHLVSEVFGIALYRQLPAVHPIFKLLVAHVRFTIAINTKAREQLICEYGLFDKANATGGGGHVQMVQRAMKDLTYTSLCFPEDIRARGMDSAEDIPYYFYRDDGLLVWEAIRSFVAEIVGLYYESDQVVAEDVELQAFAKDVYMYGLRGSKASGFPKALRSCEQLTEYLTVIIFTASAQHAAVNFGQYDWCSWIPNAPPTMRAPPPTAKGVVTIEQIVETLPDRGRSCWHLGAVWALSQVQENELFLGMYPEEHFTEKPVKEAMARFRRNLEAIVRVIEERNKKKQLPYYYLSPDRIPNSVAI
Experimental: 5-Lipoxygenase inhibition is determined e.g. by measuring the percent inhibition of the synthesis of 5-HETE [(5S)-5-hydroxy-6,8,11,14-eicosa-tetraenoic acid] and leukotriene B4 (LTB4, 5,12-dihydroxy-6,8,10,14-eicosatetraenoic acid) in A-23187-stimulated guinea pig polymorphonuclear leukocytes, essentially according to radiometric thin-layer chromatographic assays described by Walker and Dawson (J. Pharm. Pharmacol. 31: 778, 1979) and Jakschik and Lee (Nature 287: 51, 1980) used to measure the formation of 5-HETE and LTB4 -like products from ^14 C-arachidonic acid. IC50 values are determined graphically as the concentration of test compound at which the synthesis of 5-HETE and LTB4 -like products is reduced to 50% of their respective control values.
(§1) Illustrative of the invention, the compound of example 1, (E)-3-[4-(2,5-dimethyl-1H-pyrrol-1-yl)-phenyl]-N-hydroxy-N-methyl-2-propenamide, inhibits the formation of 5-HETE [(5S)-5-hydroxy-6,8,11,14-eicosa-tetraenoic acid] and leukotriene B4 (LTB4, 5,12-dihydroxy-6,8,10,14-eicosatetraenoic acid) in A-23187-stimulated guinea pig polymorphonuclear leukocytes, e.g. at an IC50 of about 0.7 micromolar (7×10^-7 M).

5-lipoxygenase [2] = assay: Ex vivo inhibition of A-23187-stimulated LTB4 formation in whole blood after oral administration; settings: dose of about 1 mg/kg p.o. to the dog
Experimental: Furthermore, the inhibition of 5-lipoxygenase is determined after oral or i.v. administration to rats or dogs by measuring ex vivo in whole blood the decrease of A-23187-stimulated LTB4 formation as compared to non-treated control animals.
as §1

[3] = tested on: rat pleurisy model of inflammation; assay: Carrageenin-induced pleurisy model of inflammation; type: in vivo; settings: 10 mg/kg p.o. at -1, 6, 24 and 45 hours relative to carrageenin injection, 48 hours after injection

Question: `Cc1ccc(C)n1-c1ccc(/C=C/C(=O)N(C)O)cc1` [Example 1, (E)-3-[4-(2,5-dimethyl-1H-pyrrol-1-yl)-phenyl]-N-hydroxy-N-methyl-2-propenamide] was tested. Which IC50 (5-lipoxygenase [1]) did it give?
Answer: ~700 nM

Question: And the “inhibition of LTB4 formation as determined ex vivo” value (5-lipoxygenase [2])?
Answer: 50%

Question: What about the “cell count of leukocytes” value [3] of the same compound?
Answer: lowers the cell count of leukocytes

Question: And the “inhibition of exudate volume” value [3]?
Answer: causes inhibition of exudate volume
